{"source": "patent US7279497B2", "about": "“Benzopyran derivatives substituted with secondary amines including imidazole, their preparation and pharmaceutical compositions containing them” (Korea Research Institute of Chemical Technology, priority 2002, dated 2007)", "key": {"isolated rat hearts": {"test_system": "isolated rat hearts", "test": "Cardioprotective activity in isolated ischemic rat heart (Langendorff)", "conditions": "10 μM", "experimental": "In order to determine whether the compounds of the chemical formula 1 are protective for ischemic hearts in vitro, experiments determining the anti-ischemic effects of the compounds on isolated rat hearts were conducted as follows.\nFor all in vitro studies, isolated rat hearts were used according to the published methods after some modification [HJ Ring, Arzneim.-Forsch./Drug Res. 39 (II), 1535 (1989): T. Krzeminski, et al., J. Pharmacological Methods, 25, 95, (1991)]\nMale Sprague-Dawley rats weighing 300-450 g were anesthetized with sodium pentobarbital (100 mg/kg, i.p.). The tail vein was injected with heparin (1,000 U/kg) and then the trachea was intubated. While rats were mechanically ventilated with a rodent ventilator (Model 7025, Ugobasile, Italy), their hearts were perfused in situ with oxygenated modified Krebs-Henseleit bicarbonate buffer (described herein) by retrograde aortic cannulation. The hearts were then excised and moved to a Langendorff apparatus (H.S.E., Germany), where they were perfused with oxygenated modified Krebs-Henseleit bicarbonate buffer containing (in mM) NaCl 116, NaHCO3 24.9, KCl 4.7, MgSO4 1.1, KH2PO4 1.17, CaCl2 2.52, glucose 8.32 and pyruvate 2.0 at a constant perfusion pressure (85 mm Hg). A latex balloon filled with solvent (ethanol:water=1:1 (v/v)) and attached to a metal cannula was placed in the left ventricle through pulmonary vein and connected to a Isotec pressure transducer (H.S.E., Germany) for measurement of left ventricular pressure (LVP). The hearts were allowed to equilibrate for 15 min, at which time left ventricular end-diastolic pressure (EDP) was adjusted to 5 mm Hg and this balloon volume was maintained throughout the experiment. Then, baseline contractile function, heart rate (HR), and coronary flow (CF) (extracorporeal electromagnetic flow probe, Narco Bio-System, U.S.A.) were measured. Cardiac contractile function was calculated by subtracting LVEDP from LV peak systolic pressure (LVSP), yielding developed pressure (LVDP). Double product (DP), another important parameter for assessing cardiac performance, was calculated by multiplying HR by LVDP. Throughout the experiment, all these parameters were measured, and calculated before and 10 min after pretreatment with each compound and 30 min after the onset of reperfusion with buffer. Data on reperfusion DP were further expressed as the percentage to pretreatment DP.\nAfter stabilization for 15 min, the hearts were pretreated for 10 min with respective drugs (10 μM, 0.04% DMSO) or vehicle (0.04% DMSO) before onset of global ischemia; test agents were administered directly into the oxygenator of the Langendorff apparatus immediately above the aortic root in a retrograde fashion as solutions in the perfusate. We then rendered the hearts globally ischemic by completely shutting off the perfusate for 30 min. Severity of ischemia was determined as the time to contracture (TTC, min) during global ischemia in which the first 5 mmHg increase in EDP was observed. Then, the hearts were reperfused and, 30 min later, contractile function (LVDP, DP) and cumulative reperfusion lactate dehydrogenase (LDH) release were measured. LDH was measured as a sensitive index for loss of cell viability with a kit supplied by Boerhinger Mannheim based on the technique of Wroblewski and LaDue [F. Wroblewski and J S. La Due, Proc Soc Exp Biol Med 90, 210, (1955)]."}, "isolated rat aorta": {"test_system": "isolated rat aorta", "test": "Vasorelaxation effects on isolated blood vessels (methoxamine induced vasoconstriction)", "experimental": "The following experiment was conducted to examine whether the compounds of the formula 1 have vasorelaxation effects.\nMale Sprague-Dawly rats (350-450 g, obtained from the Experimental Animal Team of the Korea Research Institute of Chemical Technology) were knocked unconscious by hitting the occipital region, sacrificed by cervical dislocation, and underwent thoracotomy. After being quickly removed, the thoracic aorta was deprived of the adipose tissue and cut into aortic rings of 3 mm width. The aorta was lightly rubbed with a modified Krebs Henseleit buffer (Physiological Salt Solution, PSS) soaked cotton club to remove the inner epithelial layer therefrom. While being suspended in an organ bath containing a physiological buffer, the vascular tissue was allowed to equilibrate under a resting tension of 2 g and then, stand for 1 hour at 37° C. for stabilization with a supply of a carbogen consisting of 95% O2-5% CO2.\nThereafter, the vascular tissue was constricted with 10^−5 M phenylephrine and washed several times with PSS and this procedure was repeated again to ensure the stable reactivity of vascular smooth muscle to repetitive constriction/dilatation.\nIn addition, 3×10^−6 M methoxamine was used to induce an intensive constriction in the vascular smooth muscle. When the vasoconstriction induced by the methoxamine reached and maintained a maximum, test compounds and controls were cumulatively added to the organ baths in concentrations of 1, 3, 10 and 30 μM so as to induce vasodilatation. Cromakalim, BMS-180448, and BMS-191095 were used as the controls.\nFollowing the addition of test compounds, the change in the maximal constriction induced by methoxamine was calculated to plot a concentration-relaxation response curve. Through a linear regression analysis, IC50, the drug concentration at which the vascular tissue is 50% dilated, was obtained for each compound."}}, "note": "“And” between values parts separate entries of the source, which are not always exact repeats. Equal entries are not always repeated.", "data": [{"smiles": "COC(OC)[C@@]1(C)Oc2ccc([N+](=O)[O-])cc2[C@@H](N(Cc2ncc[nH]2)c2ccc(Cl)cc2)[C@@H]1O", "note": "[Example 1, (2S,3S,4R)-3,4-dihydro-2-dimethoxymethyl-3-hydroxy-2-methyl-6-nitro-4-[N-(4-chlorophenyl)-N-(1H-imidazol-2-ylmethyl)amino]-2H-1-benzopyran]", "values": [{"measurement": "LDVP × HR (%)", "setting": "isolated rat hearts; 30 min reperfusion, % of pretreatment DP", "result": 55.7, "unit": "%"}, {"measurement": "TTC (time to contracture)", "setting": "isolated rat hearts; global ischemia", "result": "28 min and 28.0 min"}, {"measurement": "EDP", "setting": "isolated rat hearts; reperfusion", "result": 24.0, "unit": "MmHg"}, {"measurement": "LDH (reperfusion release)", "setting": "isolated rat hearts; reperfusion", "result": 10.7, "unit": "U/g"}, {"measurement": "IC50", "setting": "isolated rat aorta; rat aorta constricted with methoxamine (3 μM)", "result": 9.83, "unit": "µM"}, {"measurement": "vasorelaxant potency lower than BMS-180448", "setting": "isolated rat aorta; ratio of IC50", "result": 7, "unit": "times"}]}]}
